According to publication PMC12587545, “Noncytotoxic polymyxin derivatives enhance antibiotic action against multidrug-resistant Gram-negative bacteria” (Antimicrobial Agents and Chemotherapy, 2025):
“And” between values parts separate entries of the source, which are not always exact repeats. Equal values may be shown once. “Also recorded” adds a separate entry of the source. Read-outs that look alike come from different tables or passages of the source.

Assays:
P. aeruginosa 259-96916 = assay: Time-kill kinetics assay
[1] = tested on: MDR Gram-negative bacteria clinical isolates; assay: Checkerboard assay, summary over strains; assay type: cell-based; conditions: of all 14 clinical isolates; number (%)
A. baumannii AB027 = assay: Time-kill kinetics assay
Method: Bactericidal and bacteriostatic activity correspond to a ≥ 3 log10 and a < 3 log10 decrease in bacterial load after 24 h relative to the starting inoculum, respectively ([39]).
The time- and concentration-dependent killing of the antibiotic/compound combinations was assessed using the time-kill kinetics assay by following a previously described protocol ([27][–][29]). Bacterial culture grown overnight was diluted in phosphate-buffered saline (PBS) to 0.5 McFarland turbidity and was further diluted 1:50 in LB. Bacterial cultures treated with varying concentrations of antibiotic alone, compound alone, or the combination of antibiotic and compound were incubated in a shaking incubator at 250 rpm and at 37°C. At designated time points, 100 µL aliquots were taken from the culture tubes, serially diluted in PBS, and plated on LB agar plates. The bacterial colonies were then counted after incubation of the plates for 18 h at 37°C.

A. baumannii = assay: Checkerboard assay (antibiotic potentiation); assay type: cell-based, Acinetobacter baumannii
P. aeruginosa = assay: Checkerboard assay (antibiotic potentiation); assay type: cell-based, Pseudomonas aeruginosa
[2] = 0.5 µg/mL zoliflodacin + 8 µg/mL (5 µM) compound 1
[3] = 8 µg/mL zoliflodacin + 8 µg/mL (5 µM) compound 1
[4] = monotherapy at 8 µg/mL, LB, 37°C, up to 24 h
[5] = zoliflodacin + compound 1, both 8 µg/mL, after 24 h
[6] = A. baumannii 110193, antibiotic + compound 1
[7] = A. baumannii ATCC 17978, 0% FBS, zoliflodacin + compound 1
[8] = A. baumannii ATCC 17978, [Mg2+] 25 mM, zoliflodacin + compound 1
[9] = A. baumannii ATCC 17978, [Mg2+] 0.4–0.5 mM, zoliflodacin + compound 1
[10] = A. baumannii ATCC 17978, antibiotic + compound 1

With `C[C@@H]1CN2c3c(cc4c(N5C(=O)OC[C@@H]5C)noc4c3F)CC3(C(=O)NC(=O)NC3=O)[C@H]2[C@H](C)O1` [Zoliflodacin] the “time-kill outcome” value (P. aeruginosa 259-96916; [2]) was “bacteriostatic effect”, the “time-kill outcome” value (P. aeruginosa 259-96916; [3]) was “complete sterilization was achieved after 24 h” and the “time-kill outcome” value (P. aeruginosa 259-96916; [4]) was “growth curve similar to that of untreated bacteria”. For the same compound, the “decrease in bacterial load from the starting inoculum and from the most active monotherapy” value (P. aeruginosa 259-96916; [5]) was at least 2 log10, the “clinical isolates in which the antibiotic was synergized by compound 1” value [1] was 12 (86%) strains and the “time-kill outcome” value (A. baumannii AB027; [2]) was “appeared to eradicate the bacteria at 8 h; also recorded: slight regrowth after 24 h”. For the same compound, the “time-kill outcome” value (A. baumannii AB027; [3]) was “appeared to eradicate the bacteria at 8 h”, the “time-kill outcome” value (A. baumannii AB027; monotherapy at 0.5 µg/mL) was “growth curves similar to that of untreated bacteria” and the “time-kill outcome” value (A. baumannii AB027; [4]) was “initially decreased bacterial loads, regrowth occurred after 8 h”. For the same compound, the “decrease in bacterial load from the starting inoculum and from the most active monotherapy” value (A. baumannii AB027; [5]) was at least 2 log10, the “MICantibiotic + compound” value (A. baumannii) was 0.031 µg/mL and the Potentiation (A. baumannii) was ≥128-fold. For the same compound, the Interpretation (A. baumannii; A. baumannii 92247 (colistin-resistant), antibiotic + compound 1) was “Synergy (FIC indices of ≤0.5 is synergistic)”, the “MICantibiotic + compound” value (A. baumannii; A. baumannii 92247 (colistin-resistant), antibiotic MIC with 4 µg/mL (2 µM) compound 1) was 0.25 µg/mL and the MICantibiotic (A. baumannii; A. baumannii 92247 (colistin-resistant), antibiotic alone) was 4 µg/mL. The Potentiation (A. baumannii; A. baumannii 92247 (colistin-resistant), of antibiotic by 4 µg/mL (2 µM) compound 1) was ≥16-fold, the FIC index (A. baumannii; [6]) was 0.156 and the Interpretation (A. baumannii; [6]) was “Synergy (FIC indices of ≤0.5 is synergistic)”. The “MICantibiotic + compound” value (A. baumannii; A. baumannii 110193, antibiotic MIC with 4 µg/mL (2 µM) compound 1) was 8 µg/mL, the MICantibiotic (A. baumannii; A. baumannii 110193, antibiotic alone) was 256 µg/mL and the Potentiation (A. baumannii; A. baumannii 110193, of antibiotic by 4 µg/mL (2 µM) compound 1) was 32 fold. The Interpretation (A. baumannii; A. baumannii AB027, antibiotic + compound 1) was “Synergy (FIC indices of ≤0.5 is synergistic)”, the “MICantibiotic + compound” value (A. baumannii; A. baumannii AB027, antibiotic MIC with 4 µg/mL (2 µM) compound 1) was 0.25 µg/mL and the MICantibiotic (A. baumannii; A. baumannii AB027, antibiotic alone) was 16 µg/mL. The Potentiation (A. baumannii; A. baumannii AB027, of antibiotic by 4 µg/mL (2 µM) compound 1) was 64 fold, the Interpretation (A. baumannii; A. baumannii AB031, antibiotic + compound 1) was “Synergy (FIC indices of ≤0.5 is synergistic)” and the “MICantibiotic + compound” value (A. baumannii; A. baumannii AB031, antibiotic MIC with 4 µg/mL (2 µM) compound 1) was 4 µg/mL. The MICantibiotic (A. baumannii; A. baumannii AB031, antibiotic alone) was 128 µg/mL, the Potentiation (A. baumannii; A. baumannii AB031, of antibiotic by 4 µg/mL (2 µM) compound 1) was 32 fold and the Potentiation (A. baumannii; A. baumannii ATCC 17978, 0% FBS, of zoliflodacin by 4 µg/mL compound 1) was ≥128-fold. For the same compound, the FIC index (A. baumannii; [7]) was 0.258, the Interpretation (A. baumannii; [7]) was “Synergy (FIC indices of ≤0.5 is synergistic)” and the “MICantibiotic + compound” value (A. baumannii; A. baumannii ATCC 17978, 0% FBS, zoliflodacin MIC with 4 µg/mL compound 1) was 0.031 µg/mL. For the same compound, the MICantibiotic (A. baumannii; A. baumannii ATCC 17978, 0% FBS, zoliflodacin alone) was 4 µg/mL, the Potentiation (A. baumannii; A. baumannii ATCC 17978, 10% FBS, of zoliflodacin by 4 µg/mL compound 1) was 32 fold and the Interpretation (A. baumannii; A. baumannii ATCC 17978, 10% FBS, zoliflodacin + compound 1) was “Synergy (FIC indices of ≤0.5 is synergistic)”. The “MICantibiotic + compound” value (A. baumannii; A. baumannii ATCC 17978, 10% FBS, zoliflodacin MIC with 4 µg/mL compound 1) was 0.5 µg/mL, the MICantibiotic (A. baumannii; A. baumannii ATCC 17978, 10% FBS, zoliflodacin alone) was 16 µg/mL and the Potentiation (A. baumannii; A. baumannii ATCC 17978, 25% FBS, of zoliflodacin by 4 µg/mL compound 1) was 8 fold. For the same compound, the Interpretation (A. baumannii; A. baumannii ATCC 17978, 25% FBS, zoliflodacin + compound 1) was “Synergy (FIC indices of ≤0.5 is synergistic)”, the “MICantibiotic + compound” value (A. baumannii; A. baumannii ATCC 17978, 25% FBS, zoliflodacin MIC with 4 µg/mL compound 1) was 2 µg/mL and the MICantibiotic (A. baumannii; A. baumannii ATCC 17978, 25% FBS, zoliflodacin alone) was 16 µg/mL. The Potentiation (A. baumannii; A. baumannii ATCC 17978, 50% FBS, of zoliflodacin by 4 µg/mL compound 1) was 2 fold, the Interpretation (A. baumannii; A. baumannii ATCC 17978, 50% FBS, zoliflodacin + compound 1) was “Additive (0.5 < × ≤ 4 is additive)” and the “MICantibiotic + compound” value (A. baumannii; A. baumannii ATCC 17978, 50% FBS, zoliflodacin MIC with 4 µg/mL compound 1) was 32 µg/mL. The MICantibiotic (A. baumannii; A. baumannii ATCC 17978, 50% FBS, zoliflodacin alone) was 64 µg/mL, the Potentiation (A. baumannii; A. baumannii ATCC 17978, [Mg2+] 25 mM, of zoliflodacin by 4 µg/mL compound 1) was ≥64-fold and the FIC index (A. baumannii; [8]) was “x < 0.063”. For the same compound, the Interpretation (A. baumannii; [8]) was “Synergy (FIC indices of ≤0.5 is synergistic)”, the “MICantibiotic + compound” value (A. baumannii; A. baumannii ATCC 17978, [Mg2+] 25 mM, zoliflodacin MIC with 4 µg/mL compound 1) was 4 µg/mL and the MICantibiotic (A. baumannii; A. baumannii ATCC 17978, [Mg2+] 25 mM, zoliflodacin alone) was over 32 µg/mL. The Potentiation (A. baumannii; A. baumannii ATCC 17978, [Mg2+] 0.4–0.5 mM, of zoliflodacin by 4 µg/mL compound 1) was ≥128-fold, the FIC index (A. baumannii; [9]) was 0.258 and the Interpretation (A. baumannii; [9]) was “Synergy (FIC indices of ≤0.5 is synergistic)”. The “MICantibiotic + compound” value (A. baumannii; A. baumannii ATCC 17978, [Mg2+] 0.4–0.5 mM, zoliflodacin MIC with 4 µg/mL compound 1) was 0.031 µg/mL, the MICantibiotic (A. baumannii; A. baumannii ATCC 17978, [Mg2+] 0.4–0.5 mM, zoliflodacin alone) was 4 µg/mL and the FIC index (A. baumannii; [10]) was 0.258. The Interpretation (A. baumannii; [10]) was “Synergy (FIC indices of ≤0.5 is synergistic)”, the Interpretation (A. baumannii; A. baumannii ATCC 17978, antibiotic + compound 3) was “Additive (0.5 < × ≤ 4 is additive)” and the “MICantibiotic + compound” value (A. baumannii; A. baumannii ATCC 17978, antibiotic MIC with 8 µg/mL (5 µM) compound 3) was 2 µg/mL. For the same compound, the MICantibiotic (A. baumannii; A. baumannii ATCC 17978, antibiotic alone) was 2 µg/mL and 4 µg/mL, the Potentiation (A. baumannii; A. baumannii ATCC 17978, of antibiotic by 8 µg/mL (5 µM) compound 3) was 1 fold and the Interpretation (P. aeruginosa; P. aeruginosa 259-96916, antibiotic + compound 1) was “Synergy (FIC indices of ≤0.5 is synergistic)”. The “MICantibiotic + compound” value (P. aeruginosa; P. aeruginosa 259-96916, antibiotic MIC with 8 µg/mL (5 µM) compound 1) was 0.125 µg/mL, the MICantibiotic (P. aeruginosa; P. aeruginosa 259-96916, antibiotic alone) was 128 µg/mL and the Potentiation (P. aeruginosa; P. aeruginosa 259-96916, of antibiotic by 8 µg/mL (5 µM) compound 1) was ≥1024-fold. For the same compound, the FIC index (P. aeruginosa; P. aeruginosa 262-101856, antibiotic + compound 1) was “x < 0.078”.
